Measured values: US20230143604A1, “QW DOSING OF GIP RECEPTOR AGONIST PEPTIDE COMPOUNDS AND USES THEREOF” (TAKEDA PHARMACEUTICAL COMPANY LIMITED, priority 2020, published 2023)
Where two headings read alike, the source gives them in different places.

Legend:
human GLP-1R = molecular target: T1, human GLP-1R (Homo sapiens, UniProt P43220); test: Human GLP1R agonist activity, intracellular cAMP accumulation; format: cell-based; conditions: HEK-293T cells overexpressing human GLP-1R, 1 hr
T1 construct: HEK-293T cells overexpressing full-length human GLP-1R; FLAG (N); host or cells: HEK-293T
T1 sequence (P43220 24-463): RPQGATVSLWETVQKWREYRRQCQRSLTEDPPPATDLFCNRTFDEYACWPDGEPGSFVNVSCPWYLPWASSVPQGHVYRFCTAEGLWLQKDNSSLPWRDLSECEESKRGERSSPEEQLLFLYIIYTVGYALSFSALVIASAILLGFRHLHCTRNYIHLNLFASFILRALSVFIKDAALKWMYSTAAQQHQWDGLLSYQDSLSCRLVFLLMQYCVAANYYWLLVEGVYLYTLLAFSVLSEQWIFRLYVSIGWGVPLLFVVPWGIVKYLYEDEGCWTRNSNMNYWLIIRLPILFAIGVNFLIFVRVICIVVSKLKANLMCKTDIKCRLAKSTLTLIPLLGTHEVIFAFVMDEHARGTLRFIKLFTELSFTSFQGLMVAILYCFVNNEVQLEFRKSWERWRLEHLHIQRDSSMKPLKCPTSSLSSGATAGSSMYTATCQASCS
Summary of the method: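 cAMP accumulation is measured by HTRF after a 1 hr, room-temperature, dark exposure of thawed cells (4×10^5 cells/mL in Krebs Ringer buffer) to compound. Activity is scaled between DMSO alone as 0% and 1 nm GLP-1 as 100%.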

C57BL/6J mice = test: Oral glucose tolerance test (OGTT); format: in vivo; conditions: 3 nmol/kg s.c., 24 hours before glucose loading
Summary of the method: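 Peptide or vehicle given s.c. at 0.1, 0.3, 3 or 10 nmol/kg (peptide-dependent), 24 h before oral 50% dextrose at 5 ml/kg unless stated otherwise. Blood glucose read at 0, 15, 30 and 60 min. % inhibition = (1−(AUC cpd−AUC naïve)/(AUC veh−AUC naïve))×100.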

physchem = test: physchem
Summary of the method: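 Solubility at pH 7.4 determined by stepwise addition of 200 mM phosphate buffer in 100 μL increments to 3 mg peptide, mixing briefly each time, until no insoluble material remained, then measured by liquid chromatography.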

[1] = read-out: Human GLP1R cAMP EC50, HEK293T

SMILES	EC50 (human GLP-1R; [1])	Oral Glucose Tolerance Test Percent decrease in blood glucose AUC (%) over 60 mins (C57BL/6J mice)	solubility (physchem; pH 7.4)	solubility (physchem; pH 7.4, aqueous buffer)	EC50 (human GLP-1R; Human GLP1R cAMP EC50, HEK293T (nM))	solubility (physchem; pH 7.4, aqueous buffer, pH 7.4 Phosphate Buffer - Solubility, 200 mM Phosphate buffer pH 7.4)	solubility (physchem; pH 7.4, solubility in phosphate buffer at pH 7.4, 200 mM phosphate buffer pH 7.4)
CC[C@H](C)[C@H](NC(=O)[C@H](Cc1ccccc1)NC(=O)[C@@H](NC(=O)CNC(=O)[C@H](CCC(=O)O)NC(=O)C(C)(C)NC(=O)[C@@H](N)Cc1ccc(O)cc1)[C@@H](C)O)C(=O)N[C@@H](CO)C(=O)N[C@@H](CC(=O)O)C(=O)N[C@@H](Cc1ccc(O)cc1)C(=O)N[C@@H](CO)C(=O)N[C@H](C(=O)NC(C)(C)C(=O)N[C@@H](CCCCNC(=O)CNC(=O)CNC(=O)CNC(=O)CNC(=O)CNC(=O)CCCCCCCCCCCCCCCCC(=O)O)C(=O)N[C@@H](CC(=O)O)C(=O)N[C@@H](CCCNC(=N)N)C(=O)NC(C)(C)C(=O)N[C@@H](C)C(=O)N[C@@H](CCC(N)=O)C(=O)NC(C)(C)C(=O)N[C@@H](CC(=O)O)C(=O)N[C@@H](Cc1ccccc1)C(=O)N[C@H](C(=O)N[C@@H](CCC(=O)O)C(=O)N[C@@H](Cc1c[nH]c2ccccc12)C(=O)N[C@@H](CC(C)C)C(=O)N[C@@H](CC(C)C)C(=O)N[C@@H](C)C(=O)N[C@@H](CCC(N)=O)C(=O)N[C@@H](CCCNC(=N)N)C(=O)NCC(=O)O)C(C)C)[C@@H](C)CC [Compound 139]	8.91 nM	93% (3 nmol/kg)	≥ 15 mg/mL	≥ 30 mg/mL	–	–	–
CC[C@H](C)[C@H](NC(=O)[C@H](Cc1ccccc1)NC(=O)[C@@H](NC(=O)CNC(=O)[C@H](CCC(=O)O)NC(=O)C(C)(C)NC(=O)[C@H](Cc1ccc(O)cc1)NC)[C@@H](C)O)C(=O)N[C@@H](CO)C(=O)N[C@@H](CC(=O)O)C(=O)N[C@@H](Cc1ccc(O)cc1)C(=O)N[C@@H](CO)C(=O)N[C@H](C(=O)NC(C)(C)C(=O)N[C@@H](CCCCNC(=O)CNC(=O)CNC(=O)CNC(=O)CNC(=O)CNC(=O)CCCCCCCCCCCCCCCCC(=O)O)C(=O)N[C@@H](CC(=O)O)C(=O)N[C@@H](CCCNC(=N)N)C(=O)NC(C)(C)C(=O)N[C@@H](C)C(=O)N[C@@H](CCC(N)=O)C(=O)NC(C)(C)C(=O)N[C@@H](CC(=O)O)C(=O)N[C@@H](Cc1ccccc1)C(=O)N[C@H](C(=O)N[C@@H](CC(N)=O)C(=O)N[C@@H](Cc1c[nH]c2ccccc12)C(=O)N[C@@H](CC(C)C)C(=O)N[C@@H](CC(C)C)C(=O)N[C@@H](C)C(=O)N[C@@H](CCC(N)=O)C(=O)N[C@@H](CO)C(=O)NCC(=O)O)C(C)C)[C@@H](C)CC [Compound 53]	47.9 nM	59% (3 nmol/kg)	≥ 15 mg/mL	≥ 30 mg/mL	–	–	–
CC[C@H](C)[C@H](NC(=O)[C@H](CO)NC(=O)[C@H](Cc1ccc(O)cc1)NC(=O)[C@H](CC(=O)O)NC(=O)[C@H](CO)NC(=O)[C@@H](NC(=O)[C@H](Cc1ccccc1)NC(=O)[C@@H](NC(=O)CNC(=O)[C@H](CCC(=O)O)NC(=O)C(C)(C)NC(=O)[C@H](Cc1ccc(O)cc1)NC)[C@@H](C)O)[C@@H](C)CC)C(=O)N[C@@H](C)C(=O)N[C@@H](CC(C)C)C(=O)N[C@@H](CC(=O)O)C(=O)N[C@@H](CCCNC(=N)N)C(=O)N[C@@H](CCCCNC(=O)CNC(=O)CNC(=O)CNC(=O)CNC(=O)CNC(=O)CCCCCCCCCCCCCCCCC(=O)O)C(=O)N[C@@H](C)C(=O)N[C@@H](CCC(N)=O)C(=O)NC(C)(C)C(=O)N[C@@H](CC(=O)O)C(=O)N[C@@H](Cc1ccccc1)C(=O)N[C@H](C(=O)N[C@@H](CC(N)=O)C(=O)N[C@@H](Cc1c[nH]c2ccccc12)C(=O)N[C@@H](CC(C)C)C(=O)N[C@@H](CC(C)C)C(=O)N[C@@H](C)C(=O)N[C@@H](CCC(N)=O)C(=O)N[C@@H](CO)C(=O)N1CCC[C@H]1C(=O)N[C@@H](CO)C(=O)N[C@@H](CO)C(=O)NCC(=O)N[C@@H](C)C(=O)N1CCC[C@H]1C(=O)N1CCC[C@H]1C(=O)N1CCC[C@H]1C(=O)N[C@@H](CO)C(=O)O)C(C)C [Compound 52]	–	65% (3 nmol/kg)	–	–	17 nM	≥ 30 mg/mL	≥ 15 mg/mL
CC[C@H](C)[C@H](NC(=O)[C@H](CO)NC(=O)[C@H](Cc1ccc(O)cc1)NC(=O)[C@H](CC(=O)O)NC(=O)[C@H](CO)NC(=O)[C@@H](NC(=O)[C@H](Cc1ccccc1)NC(=O)[C@@H](NC(=O)CNC(=O)[C@H](CCC(=O)O)NC(=O)C(C)(C)NC(=O)[C@@H](N)Cc1ccc(O)cc1)[C@@H](C)O)[C@@H](C)CC)C(=O)N[C@@H](C)C(=O)N[C@@H](CCCCNC(=O)CNC(=O)CNC(=O)CNC(=O)CNC(=O)CNC(=O)CCCCCCCCCCCCCCCCC(=O)O)C(=O)N[C@@H](CC(=O)O)C(=O)N[C@@H](CCCNC(=N)N)C(=O)NC(C)(C)C(=O)N[C@@H](C)C(=O)N[C@@H](CCC(N)=O)C(=O)N[C@@H](C)C(=O)N[C@@H](CC(=O)O)C(=O)N[C@@H](Cc1ccccc1)C(=O)N[C@H](C(=O)N[C@@H](CCC(=O)O)C(=O)N[C@@H](Cc1c[nH]c2ccccc12)C(=O)N[C@@H](CC(C)C)C(=O)N[C@@H](CC(C)C)C(=O)N[C@@H](C)C(=O)N[C@@H](CCC(N)=O)C(=O)N[C@@H](CCCNC(=N)N)C(=O)NCC(=O)O)C(C)C [Compound 149]	15.8 nM	13% (3 nmol/kg)	≥ 15 mg/mL	≥ 30 mg/mL	–	–	–
CC[C@H](C)[C@H](NC(=O)[C@H](CO)NC(=O)[C@H](Cc1ccc(O)cc1)NC(=O)[C@H](CC(=O)O)NC(=O)[C@H](CO)NC(=O)[C@@H](NC(=O)[C@H](Cc1ccccc1)NC(=O)[C@@H](NC(=O)CNC(=O)[C@H](CCC(=O)O)NC(=O)C(C)(C)NC(=O)[C@H](Cc1ccc(O)cc1)NC)[C@@H](C)O)[C@@H](C)CC)C(=O)N[C@@H](C)C(=O)N[C@@H](CCCCNC(=O)CNC(=O)CNC(=O)CNC(=O)CNC(=O)CNC(=O)CCCCCCCCCCCCCCCCC(=O)O)C(=O)N[C@@H](CC(=O)O)C(=O)N[C@@H](CCCNC(=N)N)C(=O)NC(C)(C)C(=O)N[C@@H](C)C(=O)N[C@@H](CCC(N)=O)C(=O)NC(C)(C)C(=O)N[C@@H](CC(N)=O)C(=O)N[C@@H](Cc1ccccc1)C(=O)N[C@H](C(=O)N[C@@H](CC(N)=O)C(=O)N[C@@H](Cc1c[nH]c2ccccc12)C(=O)N[C@@H](CC(C)C)C(=O)N[C@@H](CC(C)C)C(=O)N[C@@H](C)C(=O)N[C@@H](CCC(N)=O)C(=O)N[C@@H](CO)C(=O)N1CCC[C@H]1C(=O)NCC(=O)O)C(C)C [Compound 114]	11.7 nM	50% (3 nmol/kg)	≥ 15 mg/mL	≥ 30 mg/mL	–	–	–
CC[C@H](C)[C@H](NC(=O)[C@H](CO)NC(=O)[C@H](Cc1ccc(O)cc1)NC(=O)[C@H](CC(=O)O)NC(=O)[C@H](CO)NC(=O)[C@@H](NC(=O)[C@H](Cc1ccccc1)NC(=O)[C@@H](NC(=O)CNC(=O)[C@H](CCC(=O)O)NC(=O)C(C)(C)NC(=O)[C@H](Cc1ccc(O)cc1)NC)[C@@H](C)O)[C@@H](C)CC)C(=O)N[C@@H](C)C(=O)N[C@@H](CCCCNC(=O)CNC(=O)CNC(=O)CNC(=O)CNC(=O)CNC(=O)CCCCCCCCCCCCCCCCC(=O)O)C(=O)N[C@@H](CC(=O)O)C(=O)N[C@@H](CCCNC(=N)N)C(=O)NC(C)(C)C(=O)N[C@@H](C)C(=O)N[C@@H](CCC(N)=O)C(=O)NC(C)(C)C(=O)N[C@@H](CC(=O)O)C(=O)N[C@@H](Cc1ccccc1)C(=O)N[C@H](C(=O)N[C@@H](CC(N)=O)C(=O)N[C@@H](Cc1c[nH]c2ccccc12)C(=O)N[C@@H](CC(C)C)C(=O)N[C@@H](CC(C)C)C(=O)N[C@@H](C)C(=O)N[C@@H](CCC(N)=O)C(=O)N[C@@H](CCCCNC(C)=O)C(=O)NCC(=O)O)C(C)C [Compound 81]	33.9 nM	66% (3 nmol/kg)	≥ 15 mg/mL	≥ 30 mg/mL	–	–	–
